In the supplement of paper PMC4862054:

Test system: HCC1937
Experiment: normalised response (% of control), CellTiter-Glo; higher = more viable cells (100 = DMSO, 0 = benzethonium chloride kill control)
Conditions: incubation time: 72 h
Protocol: (§1)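 DSRT, 72 h incubation, CellTox Green / CellTiter-Glo readout. Signal is normalised to DMSO and benzethonium chloride controls. Value is the normalised response at the highest dose.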

Compound	normalised response
Cn1c(=O)n(-c2ccc(C(C)(C)C#N)cc2)c2c3cc(-c4cnc5ccccc5c4)ccc3ncc21 [Dactolisib] (1000 nM)	58%
Nc1ncnc2c1c(COc1cccc(Cl)c1)nn2C1CCOCC1 (10000 nM)	95.3%
O=C1NC(=O)[C@@H](c2cn3c4c(cccc24)CCC3)[C@@H]1c1c[nH]c2ccccc12 [Tivantinib] (1000 nM)	69.4%
O=C(O)CCCc1ccc(N(CCCl)CCCl)cc1 [Chlorambucil] (10000 nM)	94.9%

Test system: SK-BR-3
Experiment: as above
Conditions: incubation time: 72 h
Protocol: as §1

Compound	normalised response
NS(=O)(=O)OC[C@@H]1C[C@@H](n2ccc3c(N[C@H]4CCc5ccccc54)ncnc32)C[C@@H]1O [Pevonedistat] (10000 nM)	30.4%
CN(C)C[C@@H]1CCn2cc(c3ccccc32)C2=C(C(=O)NC2=O)c2cn(c3ccccc23)CCO1 [Ruboxistaurin] (10000 nM)	-0.11%
C[C@]12CC[C@H](O)CC1=CC[C@@H]1[C@@H]2CC[C@]2(C)C(c3cccnc3)=CC[C@@H]12 [Abiraterone] (5000 nM)	104%
CC(C)c1c(C(=O)Nc2ccccc2)c(-c2ccccc2)c(-c2ccc(F)cc2)n1CC[C@@H](O)C[C@@H](O)CC(=O)O [Atorvastatin] (10000 nM)	79.8%
Cn1c(=O)n(-c2ccc(C(C)(C)C#N)cc2)c2c3cc(-c4cnc5ccccc5c4)ccc3ncc21 [Dactolisib] (1000 nM)	27.2%
Nc1ncnc2c1c(COc1cccc(Cl)c1)nn2C1CCOCC1 (10000 nM)	102%
O=C1NC(=O)[C@@H](c2cn3c4c(cccc24)CCC3)[C@@H]1c1c[nH]c2ccccc12 [Tivantinib] (1000 nM)	16.4%
O=C(O)CCCc1ccc(N(CCCl)CCCl)cc1 [Chlorambucil] (10000 nM)	101%

Test system: CAL-51
Experiment: as above
Conditions: incubation time: 72 h
Protocol: as §1

Compound	normalised response
NS(=O)(=O)OC[C@@H]1C[C@@H](n2ccc3c(N[C@H]4CCc5ccccc54)ncnc32)C[C@@H]1O [Pevonedistat] (10000 nM)	10%
CN(C)C[C@@H]1CCn2cc(c3ccccc32)C2=C(C(=O)NC2=O)c2cn(c3ccccc23)CCO1 [Ruboxistaurin] (10000 nM)	7.88%
C[C@]12CC[C@H](O)CC1=CC[C@@H]1[C@@H]2CC[C@]2(C)C(c3cccnc3)=CC[C@@H]12 [Abiraterone] (5000 nM)	98.4%
CC(C)c1c(C(=O)Nc2ccccc2)c(-c2ccccc2)c(-c2ccc(F)cc2)n1CC[C@@H](O)C[C@@H](O)CC(=O)O [Atorvastatin] (10000 nM)	21.2%
Cn1c(=O)n(-c2ccc(C(C)(C)C#N)cc2)c2c3cc(-c4cnc5ccccc5c4)ccc3ncc21 [Dactolisib] (1000 nM)	23.5%
Nc1ncnc2c1c(COc1cccc(Cl)c1)nn2C1CCOCC1 (10000 nM)	101%
O=C1NC(=O)[C@@H](c2cn3c4c(cccc24)CCC3)[C@@H]1c1c[nH]c2ccccc12 [Tivantinib] (1000 nM)	38.7%
O=C(O)CCCc1ccc(N(CCCl)CCCl)cc1 [Chlorambucil] (10000 nM)	117%

Test system: DU-4475
Experiment: as above
Conditions: incubation time: 72 h
Protocol: as §1

Compound	normalised response
NS(=O)(=O)OC[C@@H]1C[C@@H](n2ccc3c(N[C@H]4CCc5ccccc54)ncnc32)C[C@@H]1O [Pevonedistat] (10000 nM)	0.22%
CN(C)C[C@@H]1CCn2cc(c3ccccc32)C2=C(C(=O)NC2=O)c2cn(c3ccccc23)CCO1 [Ruboxistaurin] (10000 nM)	62.1%
C[C@]12CC[C@H](O)CC1=CC[C@@H]1[C@@H]2CC[C@]2(C)C(c3cccnc3)=CC[C@@H]12 [Abiraterone] (5000 nM)	99.6%
CC(C)c1c(C(=O)Nc2ccccc2)c(-c2ccccc2)c(-c2ccc(F)cc2)n1CC[C@@H](O)C[C@@H](O)CC(=O)O [Atorvastatin] (10000 nM)	87.4%
Cn1c(=O)n(-c2ccc(C(C)(C)C#N)cc2)c2c3cc(-c4cnc5ccccc5c4)ccc3ncc21 [Dactolisib] (1000 nM)	30.4%
Nc1ncnc2c1c(COc1cccc(Cl)c1)nn2C1CCOCC1 (10000 nM)	101%
O=C1NC(=O)[C@@H](c2cn3c4c(cccc24)CCC3)[C@@H]1c1c[nH]c2ccccc12 [Tivantinib] (1000 nM)	71.6%
O=C(O)CCCc1ccc(N(CCCl)CCCl)cc1 [Chlorambucil] (10000 nM)	96.9%

Test system: MDA-MB-436
Experiment: as above
Conditions: incubation time: 72 h
Protocol: as §1

Compound	normalised response
NS(=O)(=O)OC[C@@H]1C[C@@H](n2ccc3c(N[C@H]4CCc5ccccc54)ncnc32)C[C@@H]1O [Pevonedistat] (10000 nM)	21%
CN(C)C[C@@H]1CCn2cc(c3ccccc32)C2=C(C(=O)NC2=O)c2cn(c3ccccc23)CCO1 [Ruboxistaurin] (10000 nM)	3.33%
C[C@]12CC[C@H](O)CC1=CC[C@@H]1[C@@H]2CC[C@]2(C)C(c3cccnc3)=CC[C@@H]12 [Abiraterone] (5000 nM)	100%
CC(C)c1c(C(=O)Nc2ccccc2)c(-c2ccccc2)c(-c2ccc(F)cc2)n1CC[C@@H](O)C[C@@H](O)CC(=O)O [Atorvastatin] (10000 nM)	71.4%
Cn1c(=O)n(-c2ccc(C(C)(C)C#N)cc2)c2c3cc(-c4cnc5ccccc5c4)ccc3ncc21 [Dactolisib] (1000 nM)	57%
Nc1ncnc2c1c(COc1cccc(Cl)c1)nn2C1CCOCC1 (10000 nM)	89.3%
O=C1NC(=O)[C@@H](c2cn3c4c(cccc24)CCC3)[C@@H]1c1c[nH]c2ccccc12 [Tivantinib] (1000 nM)	43.6%
O=C(O)CCCc1ccc(N(CCCl)CCCl)cc1 [Chlorambucil] (10000 nM)	81.3%

Test system: Hs578T
Experiment: as above
Conditions: incubation time: 72 h
Protocol: as §1

Compound	normalised response
NS(=O)(=O)OC[C@@H]1C[C@@H](n2ccc3c(N[C@H]4CCc5ccccc54)ncnc32)C[C@@H]1O [Pevonedistat] (10000 nM)	60.1%
CN(C)C[C@@H]1CCn2cc(c3ccccc32)C2=C(C(=O)NC2=O)c2cn(c3ccccc23)CCO1 [Ruboxistaurin] (10000 nM)	70.6%
C[C@]12CC[C@H](O)CC1=CC[C@@H]1[C@@H]2CC[C@]2(C)C(c3cccnc3)=CC[C@@H]12 [Abiraterone] (5000 nM)	102%
CC(C)c1c(C(=O)Nc2ccccc2)c(-c2ccccc2)c(-c2ccc(F)cc2)n1CC[C@@H](O)C[C@@H](O)CC(=O)O [Atorvastatin] (10000 nM)	37.8%
Cn1c(=O)n(-c2ccc(C(C)(C)C#N)cc2)c2c3cc(-c4cnc5ccccc5c4)ccc3ncc21 [Dactolisib] (1000 nM)	33.9%
Nc1ncnc2c1c(COc1cccc(Cl)c1)nn2C1CCOCC1 (10000 nM)	100%
O=C1NC(=O)[C@@H](c2cn3c4c(cccc24)CCC3)[C@@H]1c1c[nH]c2ccccc12 [Tivantinib] (1000 nM)	24.6%
O=C(O)CCCc1ccc(N(CCCl)CCCl)cc1 [Chlorambucil] (10000 nM)	103%

Test system: HCC1599
Experiment: as above
Conditions: incubation time: 72 h
Protocol: as §1

Compound	normalised response
NS(=O)(=O)OC[C@@H]1C[C@@H](n2ccc3c(N[C@H]4CCc5ccccc54)ncnc32)C[C@@H]1O [Pevonedistat] (10000 nM)	18.2%
CN(C)C[C@@H]1CCn2cc(c3ccccc32)C2=C(C(=O)NC2=O)c2cn(c3ccccc23)CCO1 [Ruboxistaurin] (10000 nM)	78.9%
C[C@]12CC[C@H](O)CC1=CC[C@@H]1[C@@H]2CC[C@]2(C)C(c3cccnc3)=CC[C@@H]12 [Abiraterone] (5000 nM)	107%
CC(C)c1c(C(=O)Nc2ccccc2)c(-c2ccccc2)c(-c2ccc(F)cc2)n1CC[C@@H](O)C[C@@H](O)CC(=O)O [Atorvastatin] (10000 nM)	83.4%
Cn1c(=O)n(-c2ccc(C(C)(C)C#N)cc2)c2c3cc(-c4cnc5ccccc5c4)ccc3ncc21 [Dactolisib] (1000 nM)	82%
Nc1ncnc2c1c(COc1cccc(Cl)c1)nn2C1CCOCC1 (10000 nM)	98.6%
O=C1NC(=O)[C@@H](c2cn3c4c(cccc24)CCC3)[C@@H]1c1c[nH]c2ccccc12 [Tivantinib] (1000 nM)	47.9%
O=C(O)CCCc1ccc(N(CCCl)CCCl)cc1 [Chlorambucil] (10000 nM)	89.3%

Test system: MDA-MB-231
Experiment: as above
Conditions: incubation time: 72 h
Protocol: as §1

Compound	normalised response
NS(=O)(=O)OC[C@@H]1C[C@@H](n2ccc3c(N[C@H]4CCc5ccccc54)ncnc32)C[C@@H]1O [Pevonedistat] (10000 nM)	46%
CN(C)C[C@@H]1CCn2cc(c3ccccc32)C2=C(C(=O)NC2=O)c2cn(c3ccccc23)CCO1 [Ruboxistaurin] (10000 nM)	0.34%
C[C@]12CC[C@H](O)CC1=CC[C@@H]1[C@@H]2CC[C@]2(C)C(c3cccnc3)=CC[C@@H]12 [Abiraterone] (5000 nM)	101%
CC(C)c1c(C(=O)Nc2ccccc2)c(-c2ccccc2)c(-c2ccc(F)cc2)n1CC[C@@H](O)C[C@@H](O)CC(=O)O [Atorvastatin] (10000 nM)	3.78%
Cn1c(=O)n(-c2ccc(C(C)(C)C#N)cc2)c2c3cc(-c4cnc5ccccc5c4)ccc3ncc21 [Dactolisib] (1000 nM)	51.3%
Nc1ncnc2c1c(COc1cccc(Cl)c1)nn2C1CCOCC1 (10000 nM)	89.6%
O=C1NC(=O)[C@@H](c2cn3c4c(cccc24)CCC3)[C@@H]1c1c[nH]c2ccccc12 [Tivantinib] (1000 nM)	56.2%
O=C(O)CCCc1ccc(N(CCCl)CCCl)cc1 [Chlorambucil] (10000 nM)	97.6%

Test system: HCC1143
Experiment: as above
Conditions: incubation time: 72 h
Protocol: as §1

Compound	normalised response
NS(=O)(=O)OC[C@@H]1C[C@@H](n2ccc3c(N[C@H]4CCc5ccccc54)ncnc32)C[C@@H]1O [Pevonedistat] (10000 nM)	33.9%
CN(C)C[C@@H]1CCn2cc(c3ccccc32)C2=C(C(=O)NC2=O)c2cn(c3ccccc23)CCO1 [Ruboxistaurin] (10000 nM)	48.1%
C[C@]12CC[C@H](O)CC1=CC[C@@H]1[C@@H]2CC[C@]2(C)C(c3cccnc3)=CC[C@@H]12 [Abiraterone] (5000 nM)	97.1%
CC(C)c1c(C(=O)Nc2ccccc2)c(-c2ccccc2)c(-c2ccc(F)cc2)n1CC[C@@H](O)C[C@@H](O)CC(=O)O [Atorvastatin] (10000 nM)	55.3%
Cn1c(=O)n(-c2ccc(C(C)(C)C#N)cc2)c2c3cc(-c4cnc5ccccc5c4)ccc3ncc21 [Dactolisib] (1000 nM)	37.5%
Nc1ncnc2c1c(COc1cccc(Cl)c1)nn2C1CCOCC1 (10000 nM)	98.2%
O=C1NC(=O)[C@@H](c2cn3c4c(cccc24)CCC3)[C@@H]1c1c[nH]c2ccccc12 [Tivantinib] (1000 nM)	53.5%
O=C(O)CCCc1ccc(N(CCCl)CCCl)cc1 [Chlorambucil] (10000 nM)	96.9%

Test system: CAL-148
Experiment: as above
Conditions: incubation time: 72 h
Protocol: as §1

Compound	normalised response
NS(=O)(=O)OC[C@@H]1C[C@@H](n2ccc3c(N[C@H]4CCc5ccccc54)ncnc32)C[C@@H]1O [Pevonedistat] (10000 nM)	123%
CN(C)C[C@@H]1CCn2cc(c3ccccc32)C2=C(C(=O)NC2=O)c2cn(c3ccccc23)CCO1 [Ruboxistaurin] (10000 nM)	0.12%
C[C@]12CC[C@H](O)CC1=CC[C@@H]1[C@@H]2CC[C@]2(C)C(c3cccnc3)=CC[C@@H]12 [Abiraterone] (5000 nM)	104%
CC(C)c1c(C(=O)Nc2ccccc2)c(-c2ccccc2)c(-c2ccc(F)cc2)n1CC[C@@H](O)C[C@@H](O)CC(=O)O [Atorvastatin] (10000 nM)	94.8%
Cn1c(=O)n(-c2ccc(C(C)(C)C#N)cc2)c2c3cc(-c4cnc5ccccc5c4)ccc3ncc21 [Dactolisib] (1000 nM)	33.1%
Nc1ncnc2c1c(COc1cccc(Cl)c1)nn2C1CCOCC1 (10000 nM)	113%
